Measurements as given in patent US7772241B2, “Variolin derivatives and their use as antitumor agents” (Pharma Mar S.A., priority 2001, dated 2010).
Read-outs that look alike come from different tables or passages of the source.

Tests used:
K-562 = experiment: Inhibition of cells growth by colorimetric (SRB) assay, K-562; settings: for GI50 / CC50: Homo sapiens, K562, 48 h; for GI50: read-out: GI50 K-562, SRB assay, 48 hours exposure; for TGI K-562: SRB assay, 48 hours exposure
Procedure, shortened: (§1)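 Human tumour cells in RPMI 1640 with 10% FBS were seeded at 5×10^3 cells/well, allowed to attach for 18 h, then exposed to samples at 10 to 10^−8 μg/ml for 48 h. Growth was measured by SRB staining after TCA fixation, with absorbance read at 490 nm in triplicate wells.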

SK-OV-3 = experiment: Inhibition of cells growth by colorimetric (SRB) assay, SK-OV-3; settings: for GI50 / CC50: Homo sapiens, SK-OV-3, 48 h; for GI50: read-out: GI50 SKOV-3, SRB assay, 48 hours exposure; for TGI SKOV-3: SRB assay, 48 hours exposure
Procedure, shortened: as §1

A-549 = experiment: Inhibition of cells growth by colorimetric (SRB) assay, A-549; settings: for GI50 / CC50: Homo sapiens, A549, 48 h; for GI50: read-out: GI50 A-549, SRB assay, 48 hours exposure; for TGI A-549: SRB assay, 48 hours exposure
Procedure, shortened: as §1

HMEC1 = experiment: Inhibition of cells growth by colorimetric (SRB) assay, HMEC1; settings: for GI50: Homo sapiens, HMEC-1, 48 h, read-out: GI50 H-MEC-1, SRB assay, 48 hours exposure; for TGI H-MEC-1: SRB assay, 48 hours exposure
[1] = as above
SK-MEL-28 = experiment: Inhibition of cells growth by colorimetric (SRB) assay, SK-MEL-28; settings: for GI50 / CC50: Homo sapiens, SK-MEL-28, 48 h; for GI50: read-out: GI50 MEL-28, SRB assay, 48 hours exposure; for TGI MEL-28: SRB assay, 48 hours exposure
Procedure, shortened: as §1

IGROV-1 = experiment: Inhibition of cells growth by colorimetric (SRB) assay, IGROV-1; settings: for GI50 / CC50: Homo sapiens, IGROV-1, 48 h; for GI50: read-out: GI50 IGROV, SRB assay, 48 hours exposure; for TGI IGROV: SRB assay, 48 hours exposure
Procedure, shortened: as §1

IGROV-ET = experiment: Inhibition of cells growth by colorimetric (SRB) assay, IGROV-ET; settings: for GI50 / CC50: Homo sapiens, 48 h; for GI50: read-out: GI50 IGROV-ET, SRB assay, 48 hours exposure; for TGI IGROV-ET: SRB assay, 48 hours exposure
Procedure, shortened: as §1

LNCaP = experiment: Inhibition of cells growth by colorimetric (SRB) assay, LNCaP; settings: for GI50 / CC50: Homo sapiens, LNCaP, 48 h; for GI50: read-out: GI50 LN-caP, SRB assay, 48 hours exposure; for TGI LN-caP: SRB assay, 48 hours exposure
Procedure, shortened: as §1

DU-145 = experiment: Inhibition of cells growth by colorimetric (SRB) assay, DU-145; settings: for GI50 / CC50: Homo sapiens, DU-145, 48 h; for GI50: read-out: GI50 DU-145, SRB assay, 48 hours exposure; for TGI DU-145: SRB assay, 48 hours exposure
Procedure, shortened: as §1

SK-BR-3 = experiment: Inhibition of cells growth by colorimetric (SRB) assay, SK-BR-3; settings: for GI50 / CC50: Homo sapiens, SK-BR-3, 48 h; for GI50: read-out: GI50 SK-BR-3, SRB assay, 48 hours exposure; for TGI SK-BR-3: SRB assay, 48 hours exposure
Procedure, shortened: as §1

PANC-1 = experiment: Inhibition of cells growth by colorimetric (SRB) assay, PANC-1; settings: Homo sapiens, PANC-1, 48 h, read-out: GI50 PANC-1, SRB assay, 48 hours exposure
Procedure, shortened: as §1

[2] = read-out: LC50 K-562, SRB assay, 48 hours exposure
[3] = read-out: LC50 SKOV-3, SRB assay, 48 hours exposure
[4] = read-out: LC50 A-549, SRB assay, 48 hours exposure
[5] = human, HMEC1 cells, LC50 H-MEC-1, SRB assay, 48 hours exposure
[6] = read-out: LC50 MEL-28, SRB assay, 48 hours exposure
[7] = read-out: LC50 IGROV, SRB assay, 48 hours exposure
[8] = read-out: LC50 IGROV-ET, SRB assay, 48 hours exposure
[9] = read-out: LC50 LN-caP, SRB assay, 48 hours exposure
[10] = read-out: LC50 DU-145, SRB assay, 48 hours exposure
[11] = read-out: LC50 SK-BR-3, SRB assay, 48 hours exposure

Row | SMILES | GI50 (K-562) [µM] | TGI K-562 (K-562) | GI50 (SK-OV-3) [µM] | TGI SKOV-3 (SK-OV-3) | GI50 (A-549) [µM] | TGI A-549 (A-549) | GI50 (HMEC1) [µM] | GI50 (SK-MEL-28) [µM] | TGI MEL-28 (SK-MEL-28) | GI50 (IGROV-1) [µM] | TGI IGROV (IGROV-1) | GI50 (IGROV-ET) [µM] | TGI IGROV-ET (IGROV-ET) | GI50 (LNCaP) [µM] | TGI LN-caP (LNCaP) | GI50 (DU-145) [µM] | TGI DU-145 (DU-145) | GI50 (SK-BR-3) [µM] | TGI SK-BR-3 (SK-BR-3) | GI50 (PANC-1) [µM] | further results
1 | COc1ccc(CNc2ccnc3c2c(-c2ccnc(OC)n2)c2ccnc(NCc4ccc(OC)cc4)n23)cc1 [Compound 87] | 17.3 | 1.73E−05 | 17.3 | 1.73E−05 | 17.3 | 1.73E−05 | 7.3 | 17.3 | 1.73E−05 | 17.3 | 1.73E−05 | 17.3 | 1.73E−05 | 17.3 | 1.73E−05 | 18.3 | 1.73E−05 | 17.3 | 1.73E−05 | 17.3 | CC50 (K-562; [2]): 17.3 µM; CC50 (SK-OV-3; [3]): 17.3 µM; CC50 (A-549; [4]): 17.3 µM; TGI H-MEC-1 (HMEC1; in M (unit assumed)): 1.73E−05; CC50 at 48 h [1, 5]: 17.3 µM; CC50 (SK-MEL-28; [6]): 17.3 µM; CC50 (IGROV-1; [7]): 17.3 µM; CC50 (IGROV-ET; [8]): 17.3 µM; CC50 (LNCaP; [9]): 17.3 µM; CC50 (DU-145; [10]): 17.3 µM; CC50 (SK-BR-3; [11]): 17.3 µM
2 | COc1nccc(-c2c3c(Cl)ccnc3n3c(N)nccc23)n1 [Compound 112] | 1.4 | 8.66E−06 | 0.989 | 2.30E−06 | 1.38 | 4.35E−06 | 1.27 | 0.321 | 5.29E−06 | 1.65 | 7.59E−06 | 7.65 | 1.91E−05 | 0.872 | 1.51E−06 | 0.716 | 1.72E−06 | 2.01 | 7.13E−06 | 6.34 | CC50 (K-562; [2]): 30.6 µM; CC50 (SK-OV-3; [3]): 30.6 µM; CC50 (A-549; [4]): 30.6 µM; TGI H-MEC-1 (HMEC1; in M (unit assumed)): 4.71E−06; CC50 at 48 h [1, 5]: 11.9 µM; CC50 (SK-MEL-28; [6]): 16.6 µM; CC50 (IGROV-1; [7]): 30.6 µM; CC50 (IGROV-ET; [8]): 30.6 µM; CC50 (LNCaP; [9]): 2.62 µM; CC50 (DU-145; [10]): 3.06 µM; CC50 (SK-BR-3; [11]): 27.8 µM
3 | Nc1nccc(-c2c3c(O)ccnc3n3c(N)nccc23)n1 [Variolin B1, variolin B, reference compound] | 1.55 | 3.92E−06 | 1.21 | 3.32E−06 | 0.985 | 2.21E−06 | 0.273 | 1.2 | 2.13E−06 | 1.14 | 2.90E−06 | 1.28 | 2.82E−06 | 0.0539 | 2.10E−06 | 0.893 | 2.10E−06 | 0.848 | 2.31E−06 | 1.68 | CC50 (K-562; read-out: LC50 K-562): 34.1 µM; CC50 (SK-OV-3; read-out: LC50 SKOV-3): 34.1 µM; CC50 (A-549; read-out: LC50 A-549): 3.41 µM; TGI H-MEC-1 (HMEC1): 7.50E−07; CC50 at 48 h [1]: 6.07 µM; CC50 (SK-MEL-28; read-out: LC50 MEL-28): 2.8 µM; CC50 (IGROV-1; read-out: LC50 IGROV): 34.1 µM; CC50 (IGROV-ET; read-out: LC50 IGROV-ET): 34.1 µM; CC50 (LNCaP; read-out: LC50 LN-caP): 1.41 µM; CC50 (DU-145; read-out: LC50 DU-145): 19.9 µM; CC50 (SK-BR-3; read-out: LC50 SK-BR-3): 27.7 µM
